Laboratory results as given in PubChem BioAssay (NCI).
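Values below derive from 48-hour exposures of cells grown in 96-well plates, with endpoints linearly interpolated between the two concentrations bracketing the appropriate inhibition level. TGI marks complete inhibition of growth.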

Assays:
Experiment in all cases: DTP human tumour cell line panel, 48 h
HCC-2998 colon = test system: HCC-2998 colon
SNB-75 CNS = test system: SNB-75 CNS
CCRF-CEM leukemia = test system: CCRF-CEM leukemia
SF-539 CNS = test system: SF-539 CNS
KM12 colon = test system: KM12 colon
COLO 205 colon = test system: COLO 205 colon
HS 578T breast = test system: HS 578T breast
HCT-15 colon = test system: HCT-15 colon
SNB-19 CNS = test system: SNB-19 CNS
IGROV1 ovarian = test system: IGROV1 ovarian
MCF7 breast = test system: MCF7 breast
K-562 leukemia = test system: K-562 leukemia
LOX IMVI melanoma = test system: LOX IMVI melanoma
RXF 393 renal = test system: RXF 393 renal
SK-MEL-2 melanoma = test system: SK-MEL-2 melanoma
OVCAR-4 ovarian = test system: OVCAR-4 ovarian
HOP-92 NSCLC = test system: HOP-92 NSCLC

| Compound | TGI (HCC-2998 colon) [µM] | TGI (SNB-75 CNS) [µM] | TGI (CCRF-CEM leukemia) [µM] | TGI (SF-539 CNS) [µM] | TGI (KM12 colon) [µM] | TGI (COLO 205 colon) [µM] | TGI (HS 578T breast) [µM] | TGI (HCT-15 colon) [µM] | TGI (SNB-19 CNS) [µM] | TGI (IGROV1 ovarian) [µM] | TGI (MCF7 breast) [µM] | TGI (K-562 leukemia) [µM] | TGI (LOX IMVI melanoma) [µM] | TGI (RXF 393 renal) [µM] | TGI (SK-MEL-2 melanoma) [µM] | TGI (OVCAR-4 ovarian) [µM] | TGI (HOP-92 NSCLC) [µM] |
| --- | --- | --- | --- | --- | --- | --- | --- | --- | --- | --- | --- | --- | --- | --- | --- | --- | --- |
| COc1cc(C2SC(N)=Nc3c2c(C)nn3C(=O)Cc2ccccc2)cc(OC)c1OC (stereo not given) | > 100 | > 100 | > 100 | > 100 | > 100 | > 100 | > 100 | > 100 | > 100 | > 100 | > 100 | > 100 | > 100 |  |  |  |  |
| CCOC(=O)c1ccc(N(C)Cc2cnc3nc(N)nc(N)c3n2)cc1 |  | 54 | > 100 | 33.9 | > 100 | > 100 | 73.1 | > 100 | > 100 | 86 | 49.8 | > 100 | > 100 | 33 | 80 |  |  |
| CCCc1c(O)c2ccccc2[nH]c1=O | > 100 | > 100 | > 100 | > 100 | > 100 | > 100 | > 100 | > 100 | > 100 | > 100 | > 100 | > 100 | > 100 |  |  | > 100 | > 100 |
| CC(C)(C)OC(=O)CCC1NC(=O)[C@@H]2Cc3c([nH]c4ccccc34)C(c3ccccc3)N2C1=O (stereo not given in full) |  |  |  |  | 65.4 | 43.7 | 58.3 | 90.5 | > 100 | 98.7 | > 100 | > 100 | 36.3 | 45.7 | 43.2 | > 100 | 67.7 |
| CCOC(=O)C(CC(C)C)NC(=O)C(N)Cc1ccc(N(CCCl)CCCl)cc1 (stereo not given) | 20 | 15.9 | 13 | 9.59 | 20.1 | 12.1 | 44.5 | 11.5 | 35.5 | 31.6 |  | 41.6 | 0.278 | 5.12 | 11.8 | 3.1 | 11.2 |
| CC(=O)OC12c3ccccc3C(c3ccccc31)C1C(=O)N(c3ccccc3O)C(=O)C12 (stereo not given) | > 100 | > 100 | > 100 | > 100 | > 100 | > 100 | > 100 | > 100 | > 100 | > 100 | > 100 | > 100 | > 100 | > 100 |  | > 100 |  |
| C/C(CC(O)(C(F)(F)Cl)C(F)(F)Cl)=N\Nc1ccccc1 |  | 78.9 | > 100 | > 100 | > 100 | > 100 | 66.2 | > 100 | > 100 | > 100 | > 100 | > 100 | > 100 | 47.6 | 79.7 | > 100 | 69.6 |
| O=C(O)[C@@]1(Cc2ccc(O)cc2)C[C@@H]2Cc3ccccc3N2N1 |  |  | > 100 | > 100 | > 100 | > 100 | > 100 | > 100 | > 100 | > 100 | > 100 |  | > 100 |  | > 100 | > 100 | > 100 |
